Reference: article PMC10831071, “Reaction hijacking inhibition of Plasmodium falciparum asparagine tRNA synthetase” (Nature Communications, 2024)
“And” between values parts separate entries of the source, which are not always exact repeats. Equal values may be shown once. Read-outs that look alike come from different tables or passages of the source.

Experiments:
PfAsnRS = PfAsnRS (Plasmodium falciparum, UniProt O96198); assay: biochemical; conditions: for ATP consumption: PfAsnRS
[1] = test system: protein translation in P. falciparum trophozoites (Cam3.II-rev); assay: Protein translation assay (OPP incorporation); assay type: cell-based, Plasmodium falciparum; conditions: for Translation: individual experiments, 0 nM = 100; for IC50: read-out: IC50 (Translation)
Method: O-propargyl-puromycin (OPP) (Abcam) was added to the culture and incubated for a further 2 h. Parasites were washed three times in 1 × PBS (Gibco™) and fixed with 4% formaldehyde (Polysciences) and 0.02% glutaraldehyde (Sigma) in 1 × PBS for 20 min at room temperature (RT). Cells were washed two times with buffer A (3% human serum in 1 × PBS). Pellets were permeabilized in buffer A containing 0.05% Triton® X-100 and washed two times with buffer A. Fixed-permeabilized cells were subjected to copper-catalyzed azide–alkyne cycloaddition (CuAAC) at 37 °C for 1 h in the presence of 0.1 mM CuSO4, 0.5 mM THPTA, 5 mM sodium ascorbate, and 0.1 μM Alexa Fluor 488 azide in buffer A. Pellets were washed four times in buffer A and resuspended in buffer A containing 25 μg/ml propidium iodide (Invitrogen™). Cells were interrogated by flow cytometry (FACS Canto II; BD Biosciences, San Jose, CA) using FITC and Cy™5.5 channels.

[2] = test system: P. falciparum Cam3.II-rev; assay: Drug pulse (6 h) viability assay; assay type: cell-based, Plasmodium falciparum; conditions: for IC50: read-out: IC50 (Viability)
Method: Viability was assessed in the second cycle by flow cytometry, following labeling with 2 μM Syto-61 (Thermo Fisher Scientific)[48],[49]. Viability represents the parasitemia normalized to untreated and “kill” controls that were treated with 2 μM dihydroartemisinin (DHA; Sigma-Aldrich) for 48–72 h. For drug pulse assays, tightly synchronized Cam3.II-rev[50] parasites (1–1.5% parasitemia, 0.2% final hematocrit) were added to the plates and incubated for 6 h. Drugs were removed and the parasitemia assessed in the trophozoite stage of the next cycle.

HsAsnRS = molecular target: T1, HsAsnRS (Homo sapiens, UniProt O43776); assay: ATP consumption assay (Kinase-Glo), HsAsnRS; assay type: biochemical; conditions: for ATP consumption: HsAsnRS, normalised to 1 (Fig 3E)
T1 construct: HsAsnRS (residues M1–P548) and CDHsAsnRS (residues A98–P548); His6 (N, cleaved yes); made in house; host or cells: E. coli BL21 (DE3), pET11a
T1 sequence (O43776 1-548): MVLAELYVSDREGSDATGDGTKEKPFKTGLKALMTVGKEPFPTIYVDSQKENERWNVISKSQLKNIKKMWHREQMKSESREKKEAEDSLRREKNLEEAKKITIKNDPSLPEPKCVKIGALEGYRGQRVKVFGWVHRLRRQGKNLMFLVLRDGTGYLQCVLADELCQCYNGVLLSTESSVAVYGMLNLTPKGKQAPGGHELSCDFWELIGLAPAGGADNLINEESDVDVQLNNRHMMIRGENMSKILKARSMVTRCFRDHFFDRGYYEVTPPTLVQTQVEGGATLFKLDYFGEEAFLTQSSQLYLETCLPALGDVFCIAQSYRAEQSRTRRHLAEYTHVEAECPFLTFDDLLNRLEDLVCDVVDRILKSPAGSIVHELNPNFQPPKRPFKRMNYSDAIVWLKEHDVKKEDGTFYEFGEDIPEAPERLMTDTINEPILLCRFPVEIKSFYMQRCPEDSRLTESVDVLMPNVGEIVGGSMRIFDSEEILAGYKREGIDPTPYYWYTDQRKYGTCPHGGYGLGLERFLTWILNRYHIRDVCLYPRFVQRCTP

[3] = 78.1 nM, 6 h pulse, individual experiments, 0 nM = 100
[4] = 156.3 nM, 6 h pulse, individual experiments, 0 nM = 100
[5] = 312.5 nM, 6 h pulse, individual experiments, 0 nM = 100
[6] = 625 nM, 6 h pulse, individual experiments, 0 nM = 100
[7] = 1250 nM, 6 h pulse, individual experiments, 0 nM = 100
[8] = 2500 nM, 6 h pulse, individual experiments, 0 nM = 100
[9] = 5000 nM, 6 h pulse, individual experiments, 0 nM = 100
[10] = 10000 nM, 6 h pulse, individual experiments, 0 nM = 100
[11] = 20000 nM, 6 h pulse, individual experiments, 0 nM = 100

Chain of PfAsnRS (O96198 entry or part of it): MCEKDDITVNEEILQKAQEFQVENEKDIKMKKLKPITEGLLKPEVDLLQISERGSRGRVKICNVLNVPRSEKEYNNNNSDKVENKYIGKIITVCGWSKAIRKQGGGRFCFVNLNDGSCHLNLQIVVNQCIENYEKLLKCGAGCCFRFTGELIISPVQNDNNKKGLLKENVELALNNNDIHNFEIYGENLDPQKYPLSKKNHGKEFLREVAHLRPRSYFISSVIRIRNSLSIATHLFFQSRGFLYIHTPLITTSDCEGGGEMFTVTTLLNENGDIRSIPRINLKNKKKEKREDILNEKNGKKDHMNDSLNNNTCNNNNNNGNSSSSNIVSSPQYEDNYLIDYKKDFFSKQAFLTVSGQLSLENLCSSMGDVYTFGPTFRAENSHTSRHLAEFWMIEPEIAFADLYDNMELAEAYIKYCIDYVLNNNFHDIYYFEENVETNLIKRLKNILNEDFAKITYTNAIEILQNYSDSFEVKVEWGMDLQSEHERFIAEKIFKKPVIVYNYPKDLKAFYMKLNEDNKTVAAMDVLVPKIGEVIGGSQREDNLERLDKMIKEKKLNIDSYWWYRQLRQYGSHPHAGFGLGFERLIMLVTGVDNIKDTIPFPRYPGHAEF

`Nc1ncnc2c1ncn2[C@@H]1O[C@H](COS(N)(=O)=O)[C@@H](O)[C@H]1O` [AMS, adenosine 5’-O-sulfamate, reference compound] was tested, and the ATP consumption (PfAsnRS; 0.03 μM AMS, normalised to 1 (Fig 3D), 0.03 µM) was 0.946, the ATP consumption (PfAsnRS; 0.1 μM AMS, normalised to 1 (Fig 3D), 0.1 µM) was 0.5414 and 0.637 and the ATP consumption (PfAsnRS; 0.3 μM AMS, normalised to 1 (Fig 3D), 0.3 µM) was 0.3347 and 0.4652. The ATP consumption (PfAsnRS; 1 μM AMS, normalised to 1 (Fig 3D), 1 µM) was 0.189 and 0.2604, the ATP consumption (PfAsnRS; 3 μM AMS, normalised to 1 (Fig 3D), 3 µM) was 0.1468 and 0.18 and the ATP consumption (PfAsnRS; 10 μM AMS, normalised to 1 (Fig 3D), 10 µM) was 0.0653 and 0.08191. The ATP consumption (PfAsnRS; 30 μM AMS, normalised to 1 (Fig 3D), 30 µM) was 0.09691 and 0.0585 and the IC50 (PfAsnRS; IC50, ATP consumption, 0.05 μM PfAsnRS, E. coli tRNA present, 37 °C, 1 h (Fig. 3C, D)) was 190 nM.

For `CC1(C)N=C(N)N=C(N)N1OCCCOc1cc(Cl)c(Cl)cc1Cl` [WR99210], the Translation ([1]; 78.1 nM, 6 h exposure) was 90.9036 and 76.9712 and 89.4018, the Translation ([1]; 156.3 nM, 6 h exposure) was 89.4578 and 82.2873 and 81.3601 and the Translation ([1]; 312.5 nM, 6 h exposure) was 91.0241 and 91.4005 and 91.4867. For the same molecule, the Translation ([1]; 625 nM, 6 h exposure) was 83.5542 and 90.7751 and 99.6277, the Translation ([1]; 1250 nM, 6 h exposure) was 82.5301 and 79.1155 and 98.3867 and the Translation ([1]; 2500 nM, 6 h exposure) was 84.3976 and 81.0364 and 102.259. For the same molecule, the Translation ([1]; 5000 nM, 6 h exposure) was 88.5542 and 92.6513 and 94.4155, the Translation ([1]; 10000 nM, 6 h exposure) was 97.2892 and 85.5484 and 98.6845 and the Translation ([1]; 20000 nM, 6 h exposure) was 112.47 and 92.0706 and 98.0392. The Translation ([1]; 40000 nM, 6 h exposure) was 103.313 and 81.0364 and 102.259, the IC50 ([1]; 6 h exposure, OPP in last 2 h, Cam3.II-rev trophozoites) was greater than 1000 nM and the Viability [2, 3] was 90.9718 and 69.2733 and 98.7384. For the same molecule, the Viability [2, 4] was 76.1805 and 35.562 and 55.9172, the Viability [2, 5] was 32.1885 and 5.756 and 17.0102 and the Viability [2, 6] was 6.692 and 4.516 and 3.401. For the same molecule, the Viability [2, 7] was 5.505 and 0.4167 and 0.2921, the Viability [2, 8] was 3.52 and 0.4893 and 0.1273 and the Viability [2, 9] was 3.786 and 0.4893 and 2.194. The Viability [2, 10] was 2.477 and 1.7781 and 0.09123, the Viability [2, 11] was 0 and 0.969 and 1.737 and the Viability ([2]; 40000 nM, 6 h pulse, individual experiments, 0 nM = 100) was 3.358 and 0 (2×). It also gave an IC50 ([2]; 6 h pulse, viability at trophozoite stage of next cycle) of 0.9 nM.

For `C[C@@H]1C[C@@H]([C@H](O)CC2CC(=O)NC(=O)C2)C(=O)[C@@H](C)C1` [Cycloheximide], the Translation ([1]; 39.1 nM, 6 h exposure) was 91.0615 and 76.2984 and 81.7995, the Translation ([1]; 78.1 nM, 6 h exposure) was 81.922 and 88.5493 and 60.1275 and the Translation ([1]; 156.3 nM, 6 h exposure) was 69.0756 and 65.574 and 56.5841. For the same molecule, the Translation ([1]; 312.5 nM, 6 h exposure) was 54.5569 and 51.3303 and 54.0173, the Translation ([1]; 625 nM, 6 h exposure) was 34.3298 and 36.573 and 53.0328 and the Translation ([1]; 1250 nM, 6 h exposure) was 29.8359 and 24.3187 and 24.0049. The Translation ([1]; 2500 nM, 6 h exposure) was 20.2838 and 21.5354 and 22.6499, the Translation ([1]; 5000 nM, 6 h exposure) was 16.1089 and 19.5652 and 16.2965 and the Translation ([1]; 10000 nM, 6 h exposure) was 8.675 and 13.4553 and 5.495. For the same molecule, the Translation ([1]; 20000 nM, 6 h exposure) was 7.645 and 6.944 and 4.617, the IC50 ([1]; Plasmodium falciparum) was 331 nM and the Viability ([2]; 39.1 nM, 6 h pulse, individual experiments, 0 nM = 100) was 97.4339 and 92.233. The Viability [2, 3] was 94.7793 and 98.0583, the Viability [2, 4] was 102.013 and 98.7864 and the Viability [2, 5] was 97.9775 and 92.233. For the same molecule, the Viability [2, 6] was 92.6066 and 91.9903, the Viability [2, 7] was 79.0045 and 78.3981 and the Viability [2, 8] was 100.147 and 80.518 and 75. For the same molecule, the Viability [2, 9] was 78.8213 and 75.2427, the Viability [2, 10] was 77.1877 and 75 and the Viability [2, 11] was 95.0102 and 69.6652 and 71.1165. For the same molecule, the viability at 0.0391 µM ([2]; Plasmodium falciparum, 6 h, 39.1 nM, 6 h pulse, individual experiments, 0 nM = 100) was 108%, the viability at 0.0781 µM ([2]; Plasmodium falciparum, 6 h, 78.1 nM, 6 h pulse, individual experiments, 0 nM = 100) was 95.9% and the viability at 0.1563 µM ([2]; Plasmodium falciparum, 6 h, 156.3 nM, 6 h pulse, individual experiments, 0 nM = 100) was 109%. The viability at 0.3125 µM ([2]; Plasmodium falciparum, 6 h, 312.5 nM, 6 h pulse, individual experiments, 0 nM = 100) was 104%, the viability at 0.625 µM ([2]; Plasmodium falciparum, 6 h, 625 nM, 6 h pulse, individual experiments, 0 nM = 100) was 102% and the viability at 1.25 µM ([2]; Plasmodium falciparum, 6 h, 1250 nM, 6 h pulse, individual experiments, 0 nM = 100) was 95%. The viability at 5 µM ([2]; Plasmodium falciparum, 6 h, 5000 nM, 6 h pulse, individual experiments, 0 nM = 100) was 95.1%, the viability at 10 µM ([2]; Plasmodium falciparum, 6 h, 10000 nM, 6 h pulse, individual experiments, 0 nM = 100) was 88.3% and the IC50 ([2]; Plasmodium falciparum, 6 h) was greater than 1000 nM.

For `NC(=O)C[C@H](N)C(=O)NS(=O)(=O)c1cccc(-c2cc3ncnc(N)c3s2)c1` [Asn-OSM-S-106], the ATP consumption (HsAsnRS; 0.1 μM Asn-OSM-S-106) was 1 and 0.9164 and 0.9986, the ATP consumption (HsAsnRS; 0.3 μM Asn-OSM-S-106) was 0.9525 and 1 and the IC50 (HsAsnRS; 0.5 μM enzyme without tRNA (Fig. 3E)) was 12 µM. The ATP consumption (HsAsnRS; 1 μM Asn-OSM-S-106) was 0.8864 and 0.9489 and 0.9329, the ATP consumption (HsAsnRS; 3 μM Asn-OSM-S-106) was 0.7684 and 0.8281 and 0.785 and the ATP consumption (HsAsnRS; 10 μM Asn-OSM-S-106) was 0.5231 and 0.5272 and 0.5151. The ATP consumption (HsAsnRS; 30 μM Asn-OSM-S-106) was 0.2926 and 0.3365 and 0.2915, the ATP consumption (HsAsnRS; 100 μM Asn-OSM-S-106) was 0.09965 and 0.131 and 0.08856 and the ATP consumption (PfAsnRS; 0.005 μM Asn-OSM-S-106, 0 μM = 100 (Fig 3F), 0.005 µM) was 96.6227 and 115.849 and 86.517 and 87.5323. For the same molecule, the ATP consumption (PfAsnRS; 0.05 μM Asn-OSM-S-106, 0 μM = 100 (Fig 3F), 0.05 µM) was 102.641 and 101.648 and 126.552 and 109.716 and 83.8806 and 85.0945, the ATP consumption (PfAsnRS; 0.1 μM Asn-OSM-S-106, normalised to 1 (Fig 3E), 0.1 µM) was 0.9937 and 0.8109 and the ATP consumption (PfAsnRS; 0.5 μM Asn-OSM-S-106, 0 μM = 100 (Fig 3F), 0.5 µM) was 95.6169 and 98.8652 and 117.558 and 102.603 and 76.814 and 78.5601. The ATP consumption (PfAsnRS; 1 μM Asn-OSM-S-106, normalised to 1 (Fig 3E), 1 µM) was 0.8236 and 0.8406, the ATP consumption (PfAsnRS; 3 μM Asn-OSM-S-106, normalised to 1 (Fig 3E), 3 µM) was 0.3452 and 0.4265 and the ATP consumption (PfAsnRS; 10 μM Asn-OSM-S-106, normalised to 1 (Fig 3E), 10 µM) was 0.09706 and 0.1733.
